# In PMC8566951, “Antifungal Activity of ToAP2D Peptide Against Sporothrix globosa” (Frontiers in Bioengineering and Biotechnology, 2021):
# No end group written: not given here.
# Legend:
# S. globosa [1] = assay: S. globosa footpad infection in mice, skin lesion area; assay type: in vivo, BALB/c mice; settings: itraconazole gavage 60 mg/kg daily from Day 10, mean ± SD, n = 6
# Method: The animal protocol was approved by the Institutional Ethics Committee for Animal Use in Research, and our animal care followed Animal Care guidelines of the Jilin University. Mice were randomly divided into study group (n = 51) and the healthy control (HC) group (n = 6). Mice in the study group were injected with 0.05 ml S. globosa suspension (1 × 10^8 cfu/ml) on their footpads after alcohol cotton ball sterilization. The condition of the skin was monitored daily. […] After that, CO2 lattice laser was used to promote ToAP2D absorption, and the mice of the study group were further divided into infection group (n = 12), laser group (n = 12), laser + ToAP2D group (n = 12), and itraconazole group (n = 12), and the antifungal treatments were given subsequently.
# In the laser group, the injection feet were subjected to CO2 lattice laser 10,600 nm irradiation at room temperature with an irradiation energy density of 120 mJ/mm^2. The laser scanning area was 15 mm × 15 mm with a lattice density of 0.3 mm and 25.0% coverage rate. The laser treatment was administered every […] on Day 10, 14, 18, and 22. In the laser + ToAP2D group, mice were subjected to CO2 lattice laser irradiation with the same parameters in the laser group to assist the absorption of ToAP2D. Almost immediately after laser irradiation, the antibacterial peptide ToAP2D (4 mg/ml, diluted with 0.9% normal saline) was repeatedly rolled onto the laser-irradiated part of the footpad, until it was completely absorbed every day. In the itraconazole group, mice were gavaged with itraconazole at a dose of 60 mg/kg daily. The size of the footpads of mice was measured every 3 days and analyzed using Photoshop. On Day 18 and 26, six mice in each group were sacrificed, and their feet tissues were collected for further skin histology and immunohistochemistry studies.
# S. globosa [2] = assay: Minimal inhibitory concentration, microdilution assay; assay type: cell-based, Sporothrix globosa; settings: brainheart infusion broth, 1 × 10^8 cfu/ml, 37°C, 7 days, at least three experiments
# Method: The minimal inhibitory concentration (MIC) of ToAP2D against S. globosa was determined using the microdilution assay. In brief, twofold serial dilutions of ToAP2D were prepared in 96-well polystyrene microplates to a final volume of 100 µL. Final concentrations of ToAP2D ranged from 5 mg/ml to 0.62 μg/ml. In each plate, wells were included without peptide as control. Then, 100 µL of the liquid medium (brainheart infusion broth) was added to each well with a final concentration of 1 × 10^8 cfu/ml for S. globosa. The plates were incubated at 37°C for 7 days. In addition, 20 µL of culture from each well was inoculated on the brainheart solid medium and cultured in a constant temperature incubator at 37°C for 7 days to observe the growth of colonies. […] The experiments were performed at least three times on separate dates.
# [3] = Acute toxicity, HE staining of major organs; assay type: in vivo; settings: BALB/c mice, 60 mg/kg tail vein, organs after 24 h, n = 5
# Method: To examine their toxicity, an in vivo animal study was performed. The 10 healthy BALB/c mice were randomly divided into ToAP2D group (n = 5) and the control group (n = 5). The mice in the ToAP2D group were injected with ToAP2D through the tail vein at a dose of 60 mg/kg, and the control group mice were injected with the same volume of normal saline. After 24 h, the major organs (e.g., brain, heart, liver, and kidney) of the mice were excised and fixed in 10% buffered formalin for 1 day. The tissues were then embedded in paraffin and sectioned for hematoxylin and eosin (HE) staining.
# [4] = Serum stability by inhibition zone test; assay type: in vitro ADME; settings: human serum diluted 1:1 with 0.9% normal saline, ToAP2D 4 mg/ml, 10 h at 37°C, read-out inhibition zone after 24 h
# Method: The stability of ToAP2D in human serum was analyzed using the inhibition zone test. 5 ml of healthy human blood (from the physical examination center of our hospital) was extracted using a sterile syringe, stored at room temperature for 1 h, and then stored at 4°C overnight. After 24 h, the blood was centrifuged at 1,000 rpm/min for 10 min, and 50 µL of serum in the supernatant was gently sucked out with a pipette gun. The serum was diluted with 50 µL of 0.9% normal saline, and then, the antimicrobial peptide ToAP2D was dissolved in the diluted serum.
# To determine the stability of ToAP2D in human serum, ToAP2D (final concentration 4 mg/ml) was mixed with the diluted serum for 0, 0.5, 1, 2, 4, 6, 8, and 10 h at 37°C, respectively. In brief, S. globosa was inoculated on brainheart infusion broth agar plates, 5.0 mm paper disks were placed on top, and 6 µL aliquots of the serumpeptide mixture were added to the paper disks at each incubation time point. After 24 h of incubation, the inhibitory zones against S. globosa were measured and recorded.
# S. globosa [5] = assay: Inhibition zone test (paper disk); assay type: cell-based, Sporothrix globosa; settings: 6 µL on 5 mm paper disk, 37°C, 72 h, repeated three times, 5.00 = disk diameter
# Method: S. globosa was collected from clinical patients diagnosed with cutaneous sporotrichosis at our hospital. All strains were identified as S. globosa using mycelial-to-yeast phase conversion culture and molecular identification methods. All isolates were grown on Sabouraud’s dextrose agar. After 7 days of culture, the fungal colonies were transferred to brainheart infusion broth and incubated in a rotary shaker (150 rpm/min) at 37°C for another 7 days. S. globosa was centrifuged and resuspended in PBS and diluted to 1.0 × 10^8 cfu/ml.
# The antifungal activity of ToAP2A, ToAP2C, and ToAP2D against S. globosa was analyzed using the inhibition zone test. S. globosa was collected and diluted to 1.0 × 10^8 cfu/ml with a hemocytometer. We then evenly inoculated on brainheart infusion broth agar plates with 50 µL aliquots of the dilution. Paper disks with 5 mm diameter were pasted on the surface of the solid culture medium after high-pressure sterilization. ToAP2A, ToAP2C, and ToAP2D (4/2/1 mg/ml) and the control sample (physiological saline with a concentration of 0.9%) were dripped onto the filter paper with 6 µL, respectively, and cultured in 37°C for 72 h to observe whether there is a zone of inhibition. The diameter of the inhibition zone was measured and recorded with a vernier caliper. The above steps were repeated three times to calculate the average value and standard deviation of the inhibition zone diameter of each sample.
# [6] = ref Guilhelmelli et al., 2016; cited from earlier work
# Excerpt: (§1) As the biological characteristics of S. globosa are very similar to C. albicans, we then use ToAP2structure as a template, through reasonable molecular design and modification, to study the inhibitory e ...
# Candida albicans = settings: ref Guilhelmelli et al., 2016; cited from earlier work
# Excerpt: as §1
molecule,measurement,setting,value
"CCC(C)n1ncn(-c2ccc(N3CCN(c4ccc(OCC5COC(Cn6cncn6)(c6ccc(Cl)cc6Cl)O5)cc4)CC3)cc2)c1=O (stereo not shown) [Itraconazole, itraconazole]",Skin lesion area (mm^2),S. globosa [1]; Day14,27.82 ± 2.84 ^** mm^2
same,Skin lesion area (mm^2),S. globosa [1]; Day18,21.47 ± 0.92 ^*** mm^2
same,Skin lesion area (mm^2),S. globosa [1]; Day22,14.94 ± 2.93 ^** mm^2
same,Skin lesion area (mm^2),S. globosa [1]; Day26,11.81 ± 0.85 mm^2
GDKLIPGVMKLFRKK [ToAP2D],minimal inhibitory concentration (MIC),S. globosa [2],156.25 µg/mL
same,acute toxicity (HE staining of main organs),[3],no acute toxicity
same,"antifungal activity against S. globosa after incubation in serum, compared to the original drug",[4],> 90%
same,Inhibition zone (mm) mean ± standard deviation (SD),S. globosa [5]; 1 mg/ml,5.00 ± 0.00 mm
same,Inhibition zone (mm) mean ± standard deviation (SD),S. globosa [5]; 2 mg/ml,6.86 ± 0.25 mm
same,Inhibition zone (mm) mean ± standard deviation (SD),S. globosa [5]; 4 mg/ml,11.56 ± 0.36 mm
GAKLIPGVMKLFRKK [ToAP2C],Inhibition zone (mm) mean ± standard deviation (SD),S. globosa [5]; 1 mg/ml,5.00 ± 0.00 mm
same,Inhibition zone (mm) mean ± standard deviation (SD),S. globosa [5]; 2 mg/ml,6.37 ± 0.27 mm
same,Inhibition zone (mm) mean ± standard deviation (SD),S. globosa [5]; 4 mg/ml,8.12 ± 0.33 mm
FFGTLFKLGSKLIPGVMKLFSKKKER [ToAP2],cytotoxic activity,[6],low cytotoxic
same,hemolytic activity,[6],low hemolytic
same,growth of Candida albicans,Candida albicans,could inhibit the growth
GSKLIPGVMKLFSKK [ToAP2A],Inhibition zone (mm) mean ± standard deviation (SD),S. globosa [5]; 1 mg/ml,5.00 ± 0.00 mm
same,Inhibition zone (mm) mean ± standard deviation (SD),S. globosa [5]; 2 mg/ml,6.59 ± 0.34 mm
same,Inhibition zone (mm) mean ± standard deviation (SD),S. globosa [5]; 4 mg/ml,9.23 ± 0.34 mm
